Experimental data from US11873298B2, “Compounds and uses thereof” (JANSSEN PHARMACEUTICA NV, priority 2017, dated 2024).

Target: T1, SCD5 (Homo sapiens, UniProt Q86SK9)
T1 construct: host or cells: S. cerevisiae ole1Δ strain (W303 pdr1Δ pdr3Δ background), plasmid pRS316 with TDH3 promoter and CYC1 terminator
T1 sequence (Q86SK9 1-330): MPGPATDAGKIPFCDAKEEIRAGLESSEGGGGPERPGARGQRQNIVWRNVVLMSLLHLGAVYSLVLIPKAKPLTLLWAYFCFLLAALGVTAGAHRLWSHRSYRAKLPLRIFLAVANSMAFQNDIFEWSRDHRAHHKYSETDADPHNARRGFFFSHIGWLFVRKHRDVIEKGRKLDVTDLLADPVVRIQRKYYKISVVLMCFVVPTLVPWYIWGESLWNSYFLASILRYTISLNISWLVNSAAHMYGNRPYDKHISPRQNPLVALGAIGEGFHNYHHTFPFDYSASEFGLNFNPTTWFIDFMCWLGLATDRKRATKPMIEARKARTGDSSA
Test: Growth inhibition of humanized yeast strain expressing SCD5 as sole desaturase
Format: cell-based
Settings: humanized yeast strain expressing SCD5
Experimental: Strain oleΔ (yeast ole1 deletion mutant) was constructed by deleting OLE1 with NAT-MX6 in BY4741, amplifying the deletion cassette from the genomic DNA of the resulting strain with primers flanking the ORF by 1000 bp upstream and downstream, transforming the resulting deletion cassette into W303 pdr1Δ pdr3Δ, and plating transformants on YPD media containing G418 (200 μg/mL) and nourseothricin ([…]) with 0.01% TWEEN®-20 and 0.5 mM oleic and palmitoleic acids.
The coding sequence of yeast OLE1 was also cloned into this plasmid). These clones were then transformed into the ole1Δ strain and plated on CSM-Ura media (CSM lacking uracil) with 2% glucose (w/v) and independent colonies were isolated and amplified.
All compound profiling experiments were performed using the same basic protocol. Different genetic backgrounds (e.g., gene deletions) or conditions (e.g., addition of oleic and palmitoleic acid) were replaced as indicated below.
Yeast were cultured using standard techniques in complete synthetic media (CSM) and yeast nitrogen base supplemented with 2% (w/v) carbon source (glucose, raffinose, or galactose) to regulate the expression of the toxic disease protein. An initial starter culture was inoculated in 3 mL CSM-Glucose media and incubated overnight in a 30° C. shaker incubator (225 rpm). Saturated morning cultures were then diluted 1:20 in fresh CSM-Raffinose media and grown for 6 h to an OD600 (optical density) of ˜0.4-0.8 at 30° C. with shaking.
Compound administration was performed in two separate steps. First, 15 μL of CSM-Galactose (induces expression of toxic protein) was dispensed into clear 384 well assay plates using a MULTIDROP™ Combi reagent dispenser. […] The cultures described above were then diluted to a 2× concentration (0.03 and 0.08 for alpha-synuclein and ApoE, final ODsoo of 0.015 and 0.04) in CSM-Galactose. For wild-type and Ole1/SCD1/SCD5 plasmid-containing strains, the 2× cell density was 0.02. […] For 96-well assays (FIGS. 1A and 1B), compound dilutions in DMSO were generated in 96 well plates and 1 μL was manually pipetted into 96 well clear bottom assay plates.
For experiments using a plasmid-borne copy of Ole1, SCD1, or SCD5 (FIGS. 3B, 6, and 7), media lacking uracil (SX-Ura, where X is glucose, raffinose, or galactose), was used for all steps of the compound profiling protocol to ensure its maintenance throughout the assay.
After yeast delivery, assay plates were incubated under humidified conditions at 30° C. for 24 to 40 h. ApoE4 rescue experiments were stopped at 24 h, aSyn experiments at 40 h, Ole1 at 24 h, and SCD1/SCD5 at 40 h. The growth of yeast was monitored by reading the ODsoo of each well using a microplate reader (Perkin Elmer EnVision™).

Row | Structure (SMILES) | IC50
1 | CC(=O)N[C@H]1CC[C@H](c2nc(-c3ccc4cnn(C(C)C)c4c3)no2)CC1 [Compound 535] | > 45 µM
2 | CC(C)n1ncc2ccc(-c3noc(C4CCN(C(=O)c5cscn5)CC4)n3)cc21 [Compound 573] | 5.6 µM
3 | C[C@@H](O)C(=O)N1CCC(c2nc(-c3ccc4cnn(C5COC5)c4c3)no2)CC1 [Compound 597] | > 45 µM
4 | CCc1cnc(N2CCC(c3nc(-c4ccc5c(C)nn(C)c5c4)no3)CC2)cn1 [Compound 560] | > 45 µM
5 | COCC(=O)N1CCN(c2nc(-c3ccc4cnn(C(C)C)c4c3)no2)CC1 [Compound 595] | > 45 µM
6 | CC(C)n1ncc2ccc(-c3noc(N4C[C@H]5CN(C(=O)CC(C)(C)C)C[C@H]5C4)n3)cc21 [Compound 497] | 11.3 µM
7 | CC(C)n1ncc2ccc(-c3noc(N4C[C@@H]5CN(C(=O)CC(C)(C)C)C[C@H]5C4)n3)cc21 [Compound 569] | > 45 µM
8 | COC(=O)N1CCC2(CC1)CN(c1nc(-c3ccc4cnn(C(C)C)c4c3)no1)C2 [Compound 570] | 26.3 µM
9 | Cc1nn(C)c2cc(-c3noc(C4CCN(C(=O)CC5COC5)CC4)n3)ccc12 [Compound 592] | > 45 µM
10 | O=C(c1ccccc1)N1CCC(c2nc(-c3ccc4cnn(C5COC5)c4c3)no2)CC1 [Compound 564] | 4.23 µM
11 | CC(C)n1ncc2ccc(-c3nc(N4CCN(C(=O)OC(C)(C)C)CC4)no3)cc21 [Compound 548] | 0.01 µM
12 | CC(C)n1ncc2ccc(-c3noc(C4CCN(C(=O)c5ccc(Cl)c(F)c5)CC4)n3)cc21 [Compound 541] | > 45 µM
13 | CC(C)n1ncc2ccc(-c3noc(N4C[C@@H]5CNC[C@H]5C4)n3)cc21 [Compound 530] | > 45 µM
14 | CC(C)n1ncc2ccc(N3CC4(CCN(C(=O)c5ccccc5Cl)CC4)C3)cc21 [Compound 534] | 36.8 µM
15 | CC(C)n1ncc2ccc(-c3nc(C4CCN(C(=O)c5cccc(F)c5)CC4)no3)cc21 [Compound 506] | 0.81 µM
16 | CC(C)n1ncc2ccc(-c3noc([C@@H]4[C@@H]5CN(C(=O)OC(C)(C)C)C[C@@H]54)n3)cc21 [Compound 498] | > 45 µM

Row | Structure (SMILES) | IC50
17 | CC(C)n1ncc2ccc(-c3nc(N4CCN(C(=O)c5ccccc5)CC4)no3)cc21 [Compound 582] | 0.176 µM
18 | CC(C)n1ncc2ccc(-c3noc(C4CCN(C(=O)c5nccs5)CC4)n3)cc21 [Compound 549] | 1.21 µM
19 | O=C(CC1CC1)N1CCC(c2nc(-c3ccc4cnn(C5COC5)c4c3)no2)CC1 [Compound 558] | 1.07 µM
20 | Cn1ncc2ccc(-c3noc(N4CCN(C(=O)OC(C)(C)C)CC4)n3)cc21 [Compound 545] | 18.9 µM
21 | CC1(CC(=O)N2CCC(c3nc(-c4ccc5cnn(C6COC6)c5c4)no3)CC2)CC1 [Compound 559] | 1.19 µM
22 | CC(C)n1ncc2ccc(-c3noc(N4CCN(C(=O)OCC(F)(F)F)CC4)n3)cc21 [Compound 593] | > 45 µM
23 | COC(=O)N1CCC(c2nc(-c3ccc4cnn(C(F)F)c4c3)no2)CC1 [Compound 561] | 29.4 µM
24 | CC(C)n1ncc2ccc(-c3nc(C4CCN(C(=O)CC5(C)CC5)CC4)no3)cc21 [Compound 546] | 0.019 µM
25 | N#Cc1cccc(N2C[C@H](C(=O)N3CCC(c4nc(-c5ccc6cnn(C7COC7)c6c5)no4)CC3)CC2=O)c1 [Compound 600] | > 45 µM
26 | COC(=O)N1C[C@H]2CN(c3nc(-c4ccc5cnn(C(C)C)c5c4)no3)C[C@@H]2C1 [Compound 568] | > 45 µM
27 | CC(C)n1ncc2ccc(-c3noc([C@H]4CC[C@H](N)CC4)n3)cc21 [Compound 596] | > 45 µM
28 | Cc1nn(C)c2cc(-c3noc(C4CCN(c5nc(C(C)C)no5)CC4)n3)ccc12 [Compound 581] | > 45 µM
29 | CC(C)n1ncc2ccc(-c3noc(C4CCN(C(=O)c5ccc(Cl)cc5F)CC4)n3)cc21 [Compound 533] | 3.33 µM
30 | Cc1nn(C)c2cc(-c3noc([C@@H]4CCN(C(=O)CNC(=O)c5ccccc5)CC4(F)F)n3)ccc12 [Compound 577] | > 45 µM
31 | CC(C)n1ncc2ccc(-c3noc(C4CCN(C(=O)[C@@H]5CC(=O)N(c6cccc(C#N)c6)C5)CC4)n3)cc21 [Compound 528] | > 45 µM

Same assay, conditions: yeast strain expressing human SCD5 as sole desaturase; Table 8

Row | Structure (SMILES) | IC50
32 | O=C(C1CCC1)N1CCC(c2noc(-c3ccnc([C@@H]4CCOC4)c3)n2)CC1 [Compound 1242] | 0.38 µM
33 | CC1(OC(=O)N2CCC(c3noc(-c4cccc(C5CCOC5)n4)n3)CC2)CC1 (centres unmarked) [Compound 1197] | 17.9 µM
34 | CC(C)(C)OC(=O)N1CCN(c2cc(-c3ccc4cnn(C5COC5)c4n3)on2)CC1 [Compound 1228] | 1.95 µM
35 | CC(C)S(=O)(=O)N1CCC(c2noc(-c3ccc4cnn(C5COC5)c4c3)n2)CC1 [Compound 1218] | 0.16 µM
36 | CC1(OC(=O)N2CCC(c3noc(-c4cncc(N5CCC(F)(F)C5)c4)n3)CC2)CC1 [Compound 1198] | 1.72 µM
37 | CCC(=O)N1CCC(c2cc(-c3cc4c(cn3)cnn4C3COC3)on2)CC1 [Compound 1227] | 0.96 µM
38 | CC1CN(c2cc(-c3nc(C4CCN(C(=O)C(C)C)CC4)no3)ccc2F)CC(C)O1 (centres unmarked) [Compound 1305] | 5.39 µM
39 | CC(C)(C)OC(=O)N1CCC(c2noc(-c3ccc(C#N)c(N4CCOCC4)c3)n2)CC1 [Compound 1290] | 0.52 µM
40 | CCC(=O)N1CCC(c2noc(-c3cc(C4CCOC4)ccn3)n2)CC1 (centres unmarked) [Compound 1281] | 6.99 µM
41 | CC(C)(C)OC(=O)N1CCC(c2noc(-c3ccc(OC4COC4)nc3)n2)CC1 [Compound 1249] | 4.91 µM
42 | COC(=O)N1CCC(c2nc(-c3ccnc(C4CCOC4)c3)no2)CC1 (centres unmarked) [Compound 1230] | 6.88 µM
43 | CC1(OC(=O)N2CCC(c3noc(-c4ccc(C5CCOC5)nc4)n3)CC2)CC1 (centres unmarked) [Compound 1268] | 32.6 µM
44 | CC(C)(C)OC(=O)N1CCC(c2noc(-c3cc(C4CCOC4)c(F)cn3)n2)CC1 (centres unmarked) [Compound 1284] | 0.02 µM
45 | CC(C)(C)OC(=O)N1CCC(c2noc(-c3cc(N4CCC(F)(F)C4)ccn3)n2)CC1 [Compound 1286] | 4.29 µM
46 | CC(C)CC(=O)N1CCC(c2cc(-c3cnc4cnn(C5COC5)c4c3)on2)CC1 [Compound 1231] | 16.4 µM
47 | COC(=O)N1CCC(c2noc(N3CCc4cnn(C(C)C)c4C3)n2)CC1 [Compound 1260] | 0.25 µM
48 | CC(C)(C)OC(=O)N1CCC(c2cc(-c3cnc4cnn(C5COC5)c4c3)on2)CC1 [Compound 1225] | 0.12 µM
49 | CC1CN(c2cc(-c3nc(C4CCN(C(=O)OC(C)(C)C)CC4)no3)ccc2F)CC(C)O1 (centres unmarked) [Compound 1282] | 0.22 µM
50 | O=C(C1CC1)N1CCC(c2noc(-c3cnc4cnn(C5CCOC5)c4c3)n2)CC1 (centres unmarked) [Compound 1251] | 0.03 µM
51 | CC(C)C(=O)N1CCC(c2noc(-c3ccnc(-c4cnco4)c3)n2)CC1 [Compound 1264] | 3.27 µM
52 | CC(C)C(=O)N1CCC(c2noc(-c3ccc(C#N)c(N4CCOCC4)c3)n2)CC1 [Compound 1291] | 0.65 µM
53 | CC1(OC(=O)N2CCC(c3noc(N4CCc5cnn(C6COC6)c5C4)n3)CC2)CC1 [Compound 1224] | 0.06 µM
54 | CC1(OC(=O)N2CCC(c3noc(-c4cc(C5CCOC5)ccn4)n3)CC2)CC1 (centres unmarked) [Compound 1205] | 0.33 µM
55 | CC(C)C(=O)N1CCC(c2noc(-c3ccc(F)c(N4CCOC5(CC5)C4)c3)n2)CC1 [Compound 1302] | 0.9 µM
56 | CCC(=O)N1CCC(c2noc(-c3cc(N4CCOCC4)c(F)cn3)n2)CC1 [Compound 1276] | 4.68 µM
57 | CC1(OC(=O)N2CCC(c3noc(-c4ccnc(-c5ccon5)c4)n3)CC2)CC1 [Compound 1306] | 5.38 µM
58 | O=C(C1CC1)N1CCC(c2noc(-c3ccnc(O[C@@H]4CCOC4)c3)n2)CC1 [Compound 1255] | 1.88 µM
59 | CC(C)(C)OC(=O)N1CCC(c2noc(-c3cnnc(C4CCOC4)c3)n2)CC1 (centres unmarked) [Compound 1234] | 0.49 µM
